Reference: patent publication US20110230430A1, “SAPONIN EXTRACT FROM SAPONARIA SPP. AND USES THEREOF” (NATIONAL RESEARCH COUNCIL OF CANADA, priority 2008, published 2011)

Experiments:
Assay type in all cases: cell-based, human
MDA-MB-231 cells = test: Vybrant Apoptosis Assay Kit #2 in MDA-MB-231 cells
Excerpt: Another apoptotic assay is the Annexin-V detection of extracellular phosphatidlyserine (PS). Normally, phosphatidylserine is localized on the inner membrane of the plasmalemma. However, during the early stages of apoptosis, externalization of PS takes place. Annexin-V is a calcium binding protein which binds to PS and can be observed with annexin-V-FITC staining by flow cytometry (Martin, et al., 1995). Alexa Fluor® 488-labeled Annexin V, which has a high affinity for PS, is used to detect apoptotic cells by binding to PS on the outer surface of the cell. Propidium iodide staining is used concurrently to detect dead cells. When cells are analyzed by flow cytometry apoptotic cells show Annexin V staining, late apoptotic cells show PI and Annexin V staining, and dead cells show only PI staining. The Vybrant® Apoptosis Assay Kit #2 (Molecular Probes™) used herein in the Examples is an assay that measures Annexin-V positive cells.
The MDA-MB-231 cell line (ATCC #HTB-26) was derived from the pleural effusion of a patient with a breast adenocarcinoma (Cailleau et al., 1974). The cells were maintained in RPMI 1640 (Gibco) supplemented with 10% fetal bovine serum (Camera), 100 U/mL penicillin, 100 μg/mL streptomycin and 0.25 μg/mL amphotericin B. Cultures were maintained in medium at 37° C. with 5% CO2 and 100% relative humidity.
MDA-MB-231 cells were treated with PC1448 and assayed for apoptosis as previously described for PC-3 cells.

[1] = test system: CRL-2522 (normal fibroblast) cells; test: Hoechst 33342 staining of CRL-2522 cells; details: 7 μM PC1448, 24 hours
Excerpt: Apoptosis can also be measured by Hoechst 33342 Staining. Cells undergoing apoptosis show several characteristic morphological changes. These changes include cell shrinkage and rounding, and the formation of cytoplasmic blebs on the cell surface. Nuclear material condenses along the edge of the nucleus followed by complete condensation and nuclear fragmentation (Hacker, G., 2000). Apoptotic cells eventually break up into membrane bound vesicles, which are known as apoptotic bodies. Hoechst 33342 is a fluorescent DNA-binding dye that allows visualization of chromatin distribution within a cell. Apoptotic nuclei have highly condensed chromatin, often in crescent shapes around the periphery of the nucleus.
A further indication of apoptotic activity, in addition to the assays described above, can be derived from observations of changes in cell architecture evident after induction of apoptosis. Hoechst 33342 is a fluorescent DNA-binding dye that allows visualization of chromatin distribution within a cell.
Cells undergoing apoptosis show several characteristic morphological changes. These changes include cell shrinkage and rounding, and the formation of cytoplasmic blebs on the cell surface. Nuclear material condenses along the edge of the nucleus followed by complete condensation and nuclear fragmentation (Hacker, G., 2000). […]

MCF-7 cells = test: Dual Sensor: MitoCasp Assay in MCF-7 breast cancer cells; details: 5 and 10 μM, 24 hours
Excerpt: Techniques to assay enzymatic and signaling processes involved in apoptosis have been developed as standard protocols. One example of an early step in apoptosis, is the release of cytochrome C from mitochondria and the activation of caspase-3. Induction of the caspases (a series of cytosolic proteases) is one of the most consistently observed features of apoptosis. Caspases are a family of proteolytic enzymes that transmit the apoptotic signal using a proteolytic cascade. […] Caspases 3 and 7 are effector caspases, central to the caspase cascade pathways. In particular, caspase-3 plays a central role in the process. […] Collapse of the mitochondrial membrane potential during apoptosis prevents the dye from accumulating in the mitochondria resulting in a decrease in fluorescent intensity that can be detected with flow cytometry. […] In this assay, caspase 3/7 activity is detected using a cell permeable carboxyfluorescein labeled caspase inhibitor, which binds covalently to active caspases 3 and 7. Cells that contain bound inhibitor are detected by an increase in fluorescence when samples are analyzed by flow cytometry. […]
MCF-7 cells were treated with 5.0 μM and 10 μM of saponins PC1526, PC1464 and PC1422 for 24 hours and assessed using Dual Sensor: MitoCasp™ Assay.

Substance	Increase in Annexin V positive cells vs untreated (MDA-MB-231 cells; 14 μM PC1448, 12 hours) [fold]	Annexin-V positive cells (MDA-MB-231 cells; 14 μM PC1448, 12 hr) [%]	Annexin-V positive cells (MDA-MB-231 cells; 14 μM PC1448, 24 hr) [%]	Annexin-V positive cells (MDA-MB-231 cells; 14 μM PC1448, 48 hr) [%]	Nuclear morphology after Hoechst 33342 staining (in words, FIG. 4) [1]	Induction of apoptosis (in words, FIG. 16) (MCF-7 cells)	Annexin-V positive cells (MDA-MB-231 cells; 7 μM PC1464, 12 hr) [%]	Annexin-V positive cells (MDA-MB-231 cells; 7 μM PC1464, 24 hr) [%]	Increase in Annexin V positive cells vs untreated (MDA-MB-231 cells; 7 μM PC1464, 36 hour) [fold]	Annexin-V positive cells (MDA-MB-231 cells; 7 μM PC1464, 36 hr) [%]
Segetoside H [PC1448]	2.7	46.3	37.9	37.9	nuclear changes characteristic of apoptotic cells	–	–	–	–	–
Segetoside I [PC1464]	–	–	–	–	–	do not induce apoptosis	28.8	39.7	3	49.3
